In one test the target is Melanocortin receptor 4 (Homo sapiens, UniProt P32245). In kind it is cell membranes, Membrane. As to conditions: hek293. Note: in other assays of this panel Not Active means under 50% inhibition at 10 µM.
The target in test [1] is Receptor tyrosine-protein kinase erbB-2 (Homo sapiens, UniProt P04626). Kind of test: biochemical. In kind it is cell-based, Insect cells. As to conditions: insect cells.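 Note: inhibition of HER2 kinase enzyme activity, measured with Poly(Glu:Tyr) as the phosphorylation substrate; in other assays of this panel Not Active means under 50% inhibition at 10 µM.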
Chain of Receptor tyrosine-protein kinase erbB-2 (P04626 whole entry): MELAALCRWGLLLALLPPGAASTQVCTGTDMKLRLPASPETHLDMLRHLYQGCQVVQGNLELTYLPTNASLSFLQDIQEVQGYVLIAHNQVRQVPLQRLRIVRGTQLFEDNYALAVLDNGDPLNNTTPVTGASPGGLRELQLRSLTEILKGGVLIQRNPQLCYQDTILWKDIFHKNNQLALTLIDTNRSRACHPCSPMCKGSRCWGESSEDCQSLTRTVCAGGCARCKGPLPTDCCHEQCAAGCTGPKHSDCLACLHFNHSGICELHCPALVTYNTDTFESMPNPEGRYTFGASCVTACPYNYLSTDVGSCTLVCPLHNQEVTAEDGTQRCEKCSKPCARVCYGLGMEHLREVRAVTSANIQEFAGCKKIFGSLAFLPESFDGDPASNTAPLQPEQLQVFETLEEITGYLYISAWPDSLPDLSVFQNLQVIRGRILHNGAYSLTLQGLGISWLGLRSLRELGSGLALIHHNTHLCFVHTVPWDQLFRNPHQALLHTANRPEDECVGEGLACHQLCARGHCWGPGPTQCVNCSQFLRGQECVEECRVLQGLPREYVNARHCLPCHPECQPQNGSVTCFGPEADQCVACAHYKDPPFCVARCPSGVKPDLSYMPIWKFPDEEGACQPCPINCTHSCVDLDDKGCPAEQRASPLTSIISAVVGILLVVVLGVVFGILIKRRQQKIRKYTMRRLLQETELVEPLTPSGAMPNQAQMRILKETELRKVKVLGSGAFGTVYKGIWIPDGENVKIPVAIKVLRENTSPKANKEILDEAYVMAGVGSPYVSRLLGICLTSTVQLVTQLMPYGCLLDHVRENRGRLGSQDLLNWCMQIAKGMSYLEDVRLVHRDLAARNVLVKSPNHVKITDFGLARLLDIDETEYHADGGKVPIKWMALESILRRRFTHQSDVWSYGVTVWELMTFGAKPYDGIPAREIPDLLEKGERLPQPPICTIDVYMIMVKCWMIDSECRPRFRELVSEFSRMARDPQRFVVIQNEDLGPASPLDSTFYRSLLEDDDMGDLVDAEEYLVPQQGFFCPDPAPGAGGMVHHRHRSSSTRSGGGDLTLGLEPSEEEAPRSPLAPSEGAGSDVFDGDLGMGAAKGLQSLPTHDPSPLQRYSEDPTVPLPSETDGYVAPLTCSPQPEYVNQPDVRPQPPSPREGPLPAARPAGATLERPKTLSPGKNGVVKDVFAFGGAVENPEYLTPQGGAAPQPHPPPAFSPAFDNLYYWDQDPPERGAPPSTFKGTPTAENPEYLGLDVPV
The target in test [2] is T1, C-C chemokine receptor type 4 (Homo sapiens, UniProt P51679). Note: in other assays of this panel Not Active means under 50% inhibition at 10 µM.
T1 sequence (P51679 whole entry): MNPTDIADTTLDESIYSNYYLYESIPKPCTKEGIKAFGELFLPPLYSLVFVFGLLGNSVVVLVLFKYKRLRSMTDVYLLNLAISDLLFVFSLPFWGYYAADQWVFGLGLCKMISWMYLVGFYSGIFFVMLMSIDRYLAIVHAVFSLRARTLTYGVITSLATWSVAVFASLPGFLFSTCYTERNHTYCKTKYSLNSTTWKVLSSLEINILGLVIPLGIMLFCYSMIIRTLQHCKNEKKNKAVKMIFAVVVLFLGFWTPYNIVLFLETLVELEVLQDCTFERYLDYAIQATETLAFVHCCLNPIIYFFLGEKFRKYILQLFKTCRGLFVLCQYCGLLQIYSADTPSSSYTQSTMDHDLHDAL
In kind it is cell membranes, Membrane. Particulars: chem-1.

Test [3] addresses T2, 5-hydroxytryptamine receptor 2C (Homo sapiens, UniProt P28335).
T2 sequence (P28335 whole entry): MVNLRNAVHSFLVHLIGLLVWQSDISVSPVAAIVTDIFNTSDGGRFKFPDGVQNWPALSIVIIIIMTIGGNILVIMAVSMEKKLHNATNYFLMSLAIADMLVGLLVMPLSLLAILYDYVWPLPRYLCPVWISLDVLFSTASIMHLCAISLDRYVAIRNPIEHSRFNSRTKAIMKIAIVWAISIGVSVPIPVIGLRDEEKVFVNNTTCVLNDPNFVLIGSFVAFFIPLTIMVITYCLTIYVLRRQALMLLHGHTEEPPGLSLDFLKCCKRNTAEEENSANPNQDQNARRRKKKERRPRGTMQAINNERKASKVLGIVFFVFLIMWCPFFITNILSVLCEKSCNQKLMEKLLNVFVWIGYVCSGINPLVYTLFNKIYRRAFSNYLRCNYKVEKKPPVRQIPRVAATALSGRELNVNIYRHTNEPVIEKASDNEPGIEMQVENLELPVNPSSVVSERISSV
Kind of test: DRUGMATRIX: Serotonin (5-Hydroxytryptamine) 5-HT2C radioligand binding (ligand: [3H] Mesulergine). In kind it is cell membranes, CHO-K1, Membrane. As to conditions: cho-k1; Not Active = under 50% inhibition at 10 µM.

Test [4] deals with cGMP-specific 3',5'-cyclic phosphodiesterase (Homo sapiens, UniProt O76074). Kind of test: DRUGMATRIX: Phosphodiesterase PDE5 enzyme inhibition (substrate: [3H]cGMP + cGMP). As to conditions: platelet; Not Active = under 50% inhibition at 10 µM. In kind it is tissue-based.
For test [5], the target named is C-C chemokine receptor type 2 (Homo sapiens, UniProt P41597). In kind it is cell membranes, CHO-K1, Membrane. Note: in other assays of this panel Not Active means under 50% inhibition at 10 µM.
Chain of C-C chemokine receptor type 2 (P41597 whole entry): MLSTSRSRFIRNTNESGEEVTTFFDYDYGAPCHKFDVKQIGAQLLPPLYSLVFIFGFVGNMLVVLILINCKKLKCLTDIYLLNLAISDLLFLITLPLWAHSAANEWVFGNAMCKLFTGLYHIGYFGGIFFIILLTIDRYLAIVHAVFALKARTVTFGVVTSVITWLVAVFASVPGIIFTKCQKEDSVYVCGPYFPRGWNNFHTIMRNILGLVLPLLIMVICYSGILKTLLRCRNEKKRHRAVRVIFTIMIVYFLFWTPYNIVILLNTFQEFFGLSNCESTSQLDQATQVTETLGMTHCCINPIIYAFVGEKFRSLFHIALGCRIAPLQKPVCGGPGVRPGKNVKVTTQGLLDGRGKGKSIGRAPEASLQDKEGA
The target of another test is Glycine receptor (Rattus norvegicus, UniProt P22771+P24524+P07727+P20781). In kind it is cell membranes, Wistar, Spinal cord, Membrane. Note: in other assays of this panel Not Active means under 50% inhibition at 10 µM.

Where a SMILES comes first, the peptide text is derived from it. Bridges are numbered along the chain shown (N, C = ends). [ ]: non-standard residue; d: D form. The star is where a group is joined. Threoninol(2S,3R) = C[C@@H](O)[C@H](CO)N*

The IC50 is the midpoint of a concentration-inhibition curve. In general, Ki refers to a dissociation constant, usually derived from enzyme kinetics or from competition with a known ligand.

Chain of Melanocortin receptor 4 (P32245 whole entry): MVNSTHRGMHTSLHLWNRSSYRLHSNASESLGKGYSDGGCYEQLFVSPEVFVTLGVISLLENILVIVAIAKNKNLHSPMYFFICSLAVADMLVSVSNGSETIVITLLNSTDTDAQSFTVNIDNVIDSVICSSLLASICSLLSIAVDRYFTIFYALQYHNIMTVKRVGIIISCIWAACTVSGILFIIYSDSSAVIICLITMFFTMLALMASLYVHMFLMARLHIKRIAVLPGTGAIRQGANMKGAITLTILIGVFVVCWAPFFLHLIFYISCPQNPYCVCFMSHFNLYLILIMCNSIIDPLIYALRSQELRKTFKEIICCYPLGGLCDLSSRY

For the compound `COc1ccccc1C(=O)N1CCC(Cc2ccccc2)CC1`, the IC50 entry (on Melanocortin receptor 4; in test [1]; in test [2]; in test [3]; in test [4]; in test [5] (cho-k1)) was “Not Active” in each case. Further, on Glycine receptor, the IC50 entry is given as “Not Active”.
As for `Cc1ccccc1C(=O)N1CCC(Cc2ccccc2)CC1`, the IC50 result (against Melanocortin receptor 4; in test [1]; in test [2]; in test [3]; in test [4]; in test [5] (cho-k1)) was “Not Active” in each case. Also, the IC50 entry at Glycine receptor is listed as “Not Active”.
As for `O=C1CC[C@H](N2C(=O)c3ccccc3C2=O)C(=O)N1`, the IC50 entry (against Melanocortin receptor 4; in test [1]; in test [2]; in test [3]; in test [4]; in test [5] (cho-k1)) was “Not Active” throughout. Further, the IC50 result against Glycine receptor is listed as “Not Active”.
Turning to `N=C(Nc1ccccc1)Nc1ccccc1`, the IC50 entry (on Melanocortin receptor 4; in test [1]; in test [2]; in test [3]; in test [4]; in test [5] (cho-k1)) was “Not Active” throughout. Moreover, the half-inhibitory concentration (IC50) result on Glycine receptor was “Not Active”.
Regarding `C[C@@H](O)[C@H](CO)NC(=O)[C@@H]1CSSC[C@H](NC(=O)[C@H](N)Cc2ccccc2)C(=O)N[C@@H](Cc2ccccc2)C(=O)N[C@H](Cc2c[nH]c3ccccc23)C(=O)N[C@@H](CCCCN)C(=O)N[C@@H]([C@@H](C)O)C(=O)N1` (H-[dF]CF[dW]KTC-{Threoninol(2S,3R)}; disulfide 2-7), the IC50 result (against Melanocortin receptor 4; in test [1]; in test [2]; in test [3]; in test [4]; in test [5] (cho-k1)) was “Not Active” throughout. The IC50 entry against Glycine receptor is listed as “Not Active”.
For the compound `S=C=Nc1cccc2ccccc12` [1-NAPHTHYLISOTHIOCYANATE], the concentration for half-maximal inhibition (IC50) entry against Melanocortin receptor 4 is “Not Active”; in test [1], “Not Active”; in test [2], “Not Active”; in test [3], “Not Active”; in test [4], “Not Active”; in test [5] (read-out: IC50), 6.7 µM. Also, the IC50 result on Glycine receptor is listed as “Not Active”. Besides, the Ki in test [5] (read-out: Ki) came to 2.59 µM.
As for `C[C@](O)(CS(=O)(=O)c1ccc(F)cc1)C(=O)Nc1ccc(C#N)c(C(F)(F)F)c1` [(R)-BICALUTAMIDE], the IC50 entry (against Melanocortin receptor 4; in test [1]; in test [2]; in test [3]; in test [4]; in test [5] (cho-k1)) was “Not Active” each time. The IC50 entry against Glycine receptor is recorded as “Not Active”.
As to `CCCC(=O)Nc1ccc(OCC(O)CNC(C)C)c(C(C)=O)c1` (configuration not stated) [ACEBUTOLOL], the IC50 entry (against Melanocortin receptor 4; in test [1]; in test [2]; in test [3]; in test [4]; in test [5] (cho-k1)) was “Not Active” each time. Also, the IC50 entry against Glycine receptor is “Not Active”.
As to `CC(=O)Nc1ccc(O)cc1` [ACETAMINOPHEN], the IC50 result (on Melanocortin receptor 4; in test [1]; in test [2]; in test [3]; in test [4]; in test [5] (cho-k1)) was “Not Active” in each case. Also, on Glycine receptor, the IC50 result is “Not Active”.
As to `COc1ccc2cc([C@H](C)C(=O)O)ccc2c1` [NAPROXEN], the IC50 entry (against Melanocortin receptor 4; in test [1]; in test [2]; in test [3]; in test [5] (cho-k1); on Glycine receptor) was “Not Active” throughout.
Turning to CADMIUM DICHLORIDE, the half-maximal inhibitory concentration (IC50) result (against Melanocortin receptor 4; in test [2]; in test [3]; in test [4]; in test [5] (cho-k1); at Glycine receptor) was “Not Active” in each case. Further, the Ki result (at Melanocortin receptor 4; in test [2]; in test [3]; in test [4]; in test [5] (cho-k1); on Glycine receptor) was “Not Active” in each case.

For the origin of these results see ChEMBL document CHEMBL1909046, “DrugMatrix in vitro pharmacology data”.
